In paper PMC4470473 (Cancer cell, 2015):
Read-outs that look alike come from different tables or passages of the source.

Columns and labels:
[1] = test system: H460 or DMS53 cells expressing Bcl2 shRNA1; test: Rescue of Bcl2-silenced cells with exogenous WT or AAAA Bcl2; type: cell-based, human
[2] = cited from earlier work
Bcl2 ΔBH3 = test: Fluorescence polarization assay; type: binding; conditions: deletion of BH3
Bcl2 (WT) = Bcl2 (WT) (Homo sapiens, UniProt P10415); test: Competitive fluorescence polarization assay with fluorescent Bak peptide; type: binding
[3] = test system: normal small airway epithelial cell line (SAEC); test: Annexin-V/PI cell viability in normal cells; type: cell-based; conditions: 1μM, 72 hr
Single-dose MTD = type: in vivo
E13A Bcl2 mutant = E13A Bcl2 mutant (Homo sapiens, UniProt P10415, E13A); test: Competitive fluorescence polarization assay; type: binding
D31A Bcl2 mutant = D31A Bcl2 mutant (Homo sapiens, UniProt P10415, D31A); test: Competitive fluorescence polarization assay; type: binding
purified recombinant Bax = test: Cell-free Bax activation, IP with 6A7 Bax antibody; type: biochemical; conditions: for direct Bax activation: Bax without Bcl2
H1299 cells = test: Cell survival of H1299 cells overexpressing exogenous WT or mutant Bcl2; type: cell-based, human
H460 cells [4] = test: Autophagy; type: cell-based, human
Bcl2 ΔBH1 = test: Fluorescence polarization assay; type: binding; conditions: deletion of BH1
K17A Bcl2 mutant = K17A Bcl2 mutant (Homo sapiens, UniProt P10415, K17A); test: Competitive fluorescence polarization assay; type: binding
Plasmid pUC19 DNA = test: Electrophoretic mobility shift assay; type: binding
Bcl-XL = Bcl-XL (Homo sapiens, UniProt Q07817); test: Fluorescence polarization assay; type: binding
Bcl2 ΔBH4 = Bcl2 ΔBH4 (Homo sapiens, UniProt P10415, DEL6-31); test: Fluorescence polarization assay; type: binding; conditions: BH4 domain deficient Bcl2
H460 cells [5] = test: SRB growth assay, single agents and combination; type: cell-based, human
SCLC PDX = test: Patient-derived xenograft; type: in vivo, Nu/Nu nude mice; conditions: 20mg/kg/d i.p., 2 weeks
[6] = test system: H460, H157, DMS53, DMS153 and H146 cells expressing Bcl2 shRNA; test: Apoptosis; type: cell-based, human; conditions: 1μM, 72 hr; Bcl2 shRNA1, shRNA2 or shRNA3
[7] = biological target: D10A/N11A/R12A/E13A (AAAA) Bcl2 mutant (Homo sapiens, UniProt P10415, D10A/E13A/N11A/R12A); test: Competitive fluorescence polarization assay; type: binding
D10A Bcl2 mutant = D10A Bcl2 mutant (Homo sapiens, UniProt P10415, D10A); test: Competitive fluorescence polarization assay; type: binding
[8] = test system: NSCLC and SCLC cell lines; test: Cell growth; type: cell-based, human
[9] = Maximum tolerated dose, 12-day daily i.p. treatment; type: in vivo
H460 cells [10] = test: Bcl2/IP3R interaction and Ca2+ release; type: cell-based, human; conditions: increasing concentrations, 24h
[11] = test system: H460 lung cancer xenografts; test: H460 lung cancer xenografts
N11A Bcl2 mutant = N11A Bcl2 mutant (Homo sapiens, UniProt P10415, N11A); test: Competitive fluorescence polarization assay; type: binding
[12] = test system: mitochondria isolated from H1299 cells; test: Cyt c release from isolated mitochondria; type: biochemical, human; conditions: 1μM, 30 min, 30°C
[13] = biological target: Purified recombinant Bcl2 protein (Homo sapiens, UniProt P10415); test: Cell-free Bcl2 conformational change, IP with anti-Bcl2/BH3 domain antibody; type: biochemical; conditions: cell-free system
M16A Bcl2 mutant = M16A Bcl2 mutant (Homo sapiens, UniProt P10415, M16A); test: Competitive fluorescence polarization assay; type: binding
H20A Bcl2 mutant = H20A Bcl2 mutant (Homo sapiens, UniProt P10415, H20A); test: Competitive fluorescence polarization assay; type: binding
Bcl2 ΔBH2 = test: Fluorescence polarization assay; type: binding; conditions: deletion of BH2
Bfl-1/A1 = Bfl-1/A1 (Homo sapiens, UniProt Q16548); test: Fluorescence polarization assay; type: binding
Mcl-1 = Mcl-1 (Homo sapiens, UniProt Q07820); test: Fluorescence polarization assay; type: binding
R12A Bcl2 mutant = R12A Bcl2 mutant (Homo sapiens, UniProt P10415, R12A); test: Competitive fluorescence polarization assay; type: binding
MEF cells = test: Apoptotic effect on WT and Bax knockout MEF cells; type: cell-based
A549 cells = test: Bcl2 expression by Western blot after mTOR inhibition; type: cell-based, human; conditions: increasing concentrations, 24 hr
Bcl2 = Bcl2 expression by IHC in tumor tissues of NSCLC patients; type: in vivo, human; conditions: 5 or 10mg/day orally, 28 days, 10 NSCLC patients
H460 cells [14] = test: Bcl2 expression by Western blot after mTOR inhibition; type: cell-based, human; conditions: increasing concentrations, 24 hr
[15] = exogenous AAAA Bcl2 mutant, 72 hr
[16] = 10, 20, 30mg/kg/d i.p., 14 days

Chain of Mcl-1 (Q07820 whole entry, species assumed): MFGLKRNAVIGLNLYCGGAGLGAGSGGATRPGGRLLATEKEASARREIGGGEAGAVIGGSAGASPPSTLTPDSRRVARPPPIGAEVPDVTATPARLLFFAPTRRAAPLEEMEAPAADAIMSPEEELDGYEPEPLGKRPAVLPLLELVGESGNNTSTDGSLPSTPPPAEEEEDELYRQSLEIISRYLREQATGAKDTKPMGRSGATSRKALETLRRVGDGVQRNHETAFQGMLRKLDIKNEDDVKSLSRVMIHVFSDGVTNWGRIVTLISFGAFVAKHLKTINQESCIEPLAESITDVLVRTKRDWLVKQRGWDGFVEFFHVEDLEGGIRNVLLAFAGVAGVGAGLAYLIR
Chain of Bfl-1/A1 (Q16548 whole entry): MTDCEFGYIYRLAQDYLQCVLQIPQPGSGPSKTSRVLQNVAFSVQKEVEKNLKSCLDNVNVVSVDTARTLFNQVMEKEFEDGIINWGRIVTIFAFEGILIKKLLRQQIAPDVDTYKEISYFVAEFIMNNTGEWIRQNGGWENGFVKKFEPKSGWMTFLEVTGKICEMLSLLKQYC
Chain of Bcl-XL (Q07817 whole entry, species assumed, the tested form may be a part): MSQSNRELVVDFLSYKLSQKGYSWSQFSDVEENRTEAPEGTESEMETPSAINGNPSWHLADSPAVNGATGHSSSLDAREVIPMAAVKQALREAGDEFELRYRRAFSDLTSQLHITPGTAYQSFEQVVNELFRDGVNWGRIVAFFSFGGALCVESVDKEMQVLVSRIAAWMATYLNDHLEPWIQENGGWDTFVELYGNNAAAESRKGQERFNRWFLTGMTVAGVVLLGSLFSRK

CC1(C)CCC(CN2CCN(c3ccc(C(=O)NS(=O)(=O)c4ccc(NCC5CCOCC5)c([N+](=O)[O-])c4)c(Oc4cnc5[nH]ccc5c4)c3)CC2)=C(c2ccc(Cl)cc2)C1 [ABT-199, reference compound]
sensitivity of cells [1, 15]: restored the sensitivity
sensitivity of cells ([1]; exogenous WT Bcl2, 72 hr): restored sensitivity
thrombocytopenia ([2]; in vivo, ref Souers et al., 2013): did not cause thrombocytopenia

CC1(C)CCC(c2ccc(Cl)cc2)=C(CN2CCN(c3ccc(C(=O)NS(=O)(=O)c4ccc(N[C@H](CCN5CCOCC5)CSc5ccccc5)c(S(=O)(=O)C(F)(F)F)c4)cc3)CC2)C1 [ABT-263]
thrombocytopenia ([2]; ref Schoenwaelder et al., 2011): can induce thrombocytopenia

CN(C)CC[C@H](CSc1ccccc1)Nc1ccc(S(=O)(=O)NC(=O)c2ccc(N3CCN(Cc4ccccc4-c4ccc(Cl)cc4)CC3)cc2)cc1[N+](=O)[O-] [ABT-737]
thrombocytopenia ([2]; ref Schoenwaelder et al., 2011): can induce thrombocytopenia

CCN(CC)C[C@@H](O)CNc1ccc(NC[C@H]2CO2)c2c1C(=O)c1ccccc1C2=O [BDA-366]
effect of domain deletion on binding (Bcl2 ΔBH3): did not significantly affect
Ki (Bcl2 (WT)): 3.3 ± 0.73 nM
sensitivity of normal cells [3]: less sensitive
maximum therapeutic dose for continuous treatment (Single-dose MTD; 10% of single dose MTD): 30~40 mg/kg
single dose MTD (Single-dose MTD; mouse, in vivo): 300 to 400 mg/kg
toxicity (Single-dose MTD; single dose 300mg/kg i.p.): did not cause weight loss or other toxicities
ALT and AST (Single-dose MTD; single dose 400mg/kg): significantly enhanced
pathological analysis of organs (Single-dose MTD; single dose 400mg/kg): microsteatosis in the liver and atrophic white pulp in the spleen
time to death (Single-dose MTD; single dose 400mg/kg): 4 days
Ki (E13A Bcl2 mutant): 4.5 ± 0.71 nM
Ki (D31A Bcl2 mutant): 3.7 ± 0.91 nM
direct Bax activation (purified recombinant Bax): is not a direct Bax activator
Bcl2-dependent Bax activation (purified recombinant Bax; Bcl2 pre-treated with compound 1 hr, then Bax 2 hr): enhanced the ability of Bax to bind to 6A7 antibody
cell survival (H1299 cells; compound Bcl2 AAAA mutant): significantly prolonged cell survival
sensitivity of cells (H1299 cells; exogenous WT or single site Bcl2 mutants): enhanced sensitivity
LC3-II levels (H460 cells [4]; 1 μM, 24h): Increased levels of LC3-II
percentage of GFP-LC3vac cells (H460 cells [4]; vs DMSO control): significantly increases
effect of domain deletion on binding (Bcl2 ΔBH1): did not significantly affect
Ki (K17A Bcl2 mutant): 4.2 ± 0.45 nM
DNA binding (mobility shift) (Plasmid pUC19 DNA): but not BDA-366 can bind to pUC19 DNA
binding (Bcl-XL): did not bind
sensitivity of cells [1, 15]: not to BDA-366
sensitivity of cells ([1]; exogenous WT Bcl2, 72 hr): restored sensitivity
binding (Bcl2 ΔBH4): failed to bind
cell growth inhibition (H460 cells [5]; 100nM): partially inhibited
tumor growth (SCLC PDX): potently suppressed the growth
sensitivity after depletion of endogenous Bcl2 [6]: significantly reduced sensitivity
Ki [7]: 598.64 ± 0.12 nM
Ki (D10A Bcl2 mutant): 4.8 ± 0.41 nM
sensitivity of cell lines ([8]; higher Bcl2: H157, Calu-1, H358, H460, H1975, DMS53, DMS153, H146, H69): more sensitive
sensitivity of cell lines ([8]; lower or undetectable Bcl2: A549, H1299, DMS114, H128): less sensitive
time to death (uniformly lethal) ([9]; 40mg/kg/d i.p.): ≤ 8 days
time to death (uniformly lethal) ([9]; 50mg/kg/d i.p.): up to 12 days
lethality ([9]; 10 to 30mg/kg/d i.p., up to 12 days): no death
Bcl2/IP3R binding (H460 cells [10]): reduced Bcl2/IP3R binding
Ca2+ release (H460 cells [10]): increased Ca^2+ release
body weight ([11]; 30mg/kg): Slight weight loss
apoptosis in tumor tissues (active caspase 3, TUNEL) [11, 16]: dose-dependent apoptosis induction
tumor growth [11, 16]: dose-dependent repression
histopathology of normal tissues ([11]; 10–30mg/kg/d): no evidence of normal tissue toxicities
Bcl2 BH3 domain exposure in tumor tissues (QD-IHF) ([11]; 14 days): dose-dependent exposure of the Bcl2 BH3 domain
active Bax (6A7) in tumor tissues (QD-IHF) ([11]; 14 days): increased level of 6A7 binding to Bax
kidney (BUN) and liver (ALT and AST) function ([11]; up to 30mg/kg/d, 14 days): in the normal range
neutrophils, lymphocytes, RBC and platelets in blood ([11]; up to 30mg/kg/d, 14 days): no decreases
Ki (N11A Bcl2 mutant): 4.1 ± 0.67 nM
Cyt c release ([12]; WT Bcl2 mitochondria): induced Cyt c release
Cyt c release ([12]; ΔBH3 and vector-only control mitochondria): not from ΔBH3 and vector-only control cells
Bcl2 conformational change (BH3 domain exposure) [13]: enhanced the ability of the Bcl2/BH3 domain-specific antibody to bind Bcl2
Ki (M16A Bcl2 mutant): 3.9 ± 0.31 nM
Ki (H20A Bcl2 mutant): 3.8 ± 0.47 nM
effect of domain deletion on binding (Bcl2 ΔBH2): did not significantly affect
binding (Bfl-1/A1): did not bind
binding (Mcl-1): did not bind
Ki (R12A Bcl2 mutant): 4.3 ± 0.54 nM
sensitivity of Bax deficient vs WT MEF cells (MEF cells): significantly resistant

CO[C@H]1C[C@@H]2CC[C@@H](C)[C@@](O)(O2)C(=O)C(=O)N2CCCC[C@H]2C(=O)O[C@H]([C@H](C)C[C@@H]2CC[C@@H](OCCO)[C@H](OC)C2)CC(=O)[C@H](C)/C=C(\C)[C@@H](O)[C@@H](OC)C(=O)[C@H](C)C[C@H](C)/C=C/C=C/C=C/1C [RAD001, everolimus]
Bcl2 expression (A549 cells): up-regulation of Bcl2 in a dose-dependent manner
cell growth inhibition (H460 cells [5]; 1nM): partially inhibited
apoptosis in tumor tissues ([11]; 1mg/kg/d, 14 days, alone): did not cause significant apoptosis
Bcl2 expression in post-treatment vs baseline tumor tissues (Bcl2): increased expression of Bcl2
Bcl2 expression (H460 cells [14]): up-regulation of Bcl2 in a dose-dependent manner

COc1cc([C@@H]2c3cc4c(cc3[C@@H](O[C@@H]3O[C@@H]5CO[C@@H](C)O[C@H]5[C@H](O)[C@H]3O)[C@H]3COC(=O)[C@H]23)OCO4)cc(OC)c1O [VP-16]
Bcl2 conformational change (BH3 domain exposure) [13]: not a chemotherapeutic agent (i.e. VP-16 or cisplatin) can directly induce Bcl2 conformational change

N.N.[Cl][Pt][Cl] [cisplatin, reference compound]
DNA binding (mobility shift) (Plasmid pUC19 DNA): can bind to pUC19 DNA
Bcl2 conformational change (BH3 domain exposure) [13]: not a chemotherapeutic agent (i.e. VP-16 or cisplatin) can directly induce Bcl2 conformational change

BAM7 [reference compound]
direct Bax activation (purified recombinant Bax): can directly activate Bax
